Assays:
Format in all cases: physicochemical
[1] = Aqueous solubility of indacaterol with varying pH in citrate buffer; settings: aqueous citrate buffer 5 mM
Method: Solubility studies of indacaterol in solutions of varying pH were performed using an orbital shaker method. Excess indacaterol was placed in a glass vial with an aqueous citrate buffer (5 mM; prepared from citric acid and NaOH). Samples were shaken for 12 to 24 hours to ensure equilibrium was reached before checking and adjusting the pH (using 1 M HCl and NaOH) and placing samples back into the orbital shaker for an additional 12 hours. This process was repeated up to two times or until the desired pH was obtained. After the desired pH was reached, the vial was removed from the shaker and allowed to settle for 30 minutes. Then, the sample was filtered using a 0.2 μM PVDF syringe filter; the initial 0.5 mL of filtrate was discarded. The pH was then measured and the concentration of the indacaterol was evaluated by UV-Vis.

[2] = Forced degradation study of indacaterol (RP-HPLC impurities); settings: for Total Impurities (%): includes 2% process-related impurity
Method: A degraded sample panel was prepared to identify indacaterol degradation pathways and products. Stress conditions are outlined in Table 1.
One of 6N HCl, 6N NaOH, or 30% H2O2 (aqueous) were added to a suitable volume of 100 μg/mL indacaterol and diluted with water:methanol (50:50, v:v) to achieve a final indacaterol concentration of 10 μg/mL. Samples were stored at ambient temperature. At specified time points, acidic and basic hydrolysis (1 N HCl and 1 N NaOH, respectively) samples were neutralized (H2O2 samples were not quenched) and reversed-phase high performance liquid chromatography (RP-HPLC) was used to quantitate indacaterol impurities. All samples were diluted to 5 μg/mL prior to RP-HPLC analysis. Method parameters are outlined in Table 2.
Total impurities (process-related and product-related) of the indacaterol forced degradation study samples are presented in Table 3. Forced degradation impurity peaks were identified based on their retention time relative (RRT) to the indacaterol peak. Impurity peaks already present in the indacaterol (control group at T0; total peak area approximately 2%) were considered process-related, while additional peaks formed after the degradation were considered product-related.

[3] = Aqueous solubility of indacaterol and indacaterol maleate in water (orbital shaker, UV-Vis); settings: water at pH 7.1
Method: Solubility studies of indacaterol and indacaterol maleate were performed using an orbital shaker method. Excess indacaterol was placed in a glass vial with water. The initial pH of the water was 7.1. Samples were shaken for 12 hours to ensure equilibrium was reached. After the 12 hour period, the vial was removed from the shaker and allowed to settle for 30 minutes. Then, the sample was filtered using a 0.2 μM polyvinylidene fluoride (PVDF) syringe filter; the initial 0.5 mL of filtrate was discarded. The pH was then measured and the concentration of the indacaterol was evaluated by UV-Vis.

- Solubility of indacaterol versus pH [1]: increase with decreasing pH
- Total Impurities (%) ([2]; Acidic Hydrolysis (1M HCl), 15 h, ambient temperature): 7.25%
- Total Impurities (%) ([2]; Acidic Hydrolysis (1M HCl), T0): 4.01%
- Total Impurities (%) ([2]; Basic Hydrolysis (1M NaOH), 15 h, ambient temperature): 7.69%
- Total Impurities (%) ([2]; Basic Hydrolysis (1M NaOH), T0): 3.99%
- Total Impurities (%) ([2]; Control, T0): 1.81%
- Total Impurities (%) ([2]; Control, T0, listed as indacaterol): approximately 2%
- degradation of indacaterol samples in aqueous solutions over time ([2]; FIG. 1, forced degradation experiment): minimal degradation
- Total Impurities (%) ([2]; Oxidation (1.2% H2O2), 7 h): 2.77%
- Total Impurities (%) ([2]; Oxidation (1.2% H2O2), 29 h): 8.83%
- Total Impurities (%) ([2]; Oxidation (1.2% H2O2), 29 h, listed as indacaterol): approximately 9%
- solubility in water [3]: insoluble
SMILES: CCc1cc2c(cc1CC)CC(NC[C@H](O)c1ccc(O)c3[nH]c(=O)ccc13)C2 [Indacaterol, (R)-5-[2-(5,6-Diethylindan-2-ylamino)-1-hydroxyethyl]-8hydroxy-1H-quinolin-2-one]

Reference: patent US11844793B2, “Liquid formulations of indacaterol” (AeroRx Therapeutics LLC, priority 2020, dated 2023)
